# Assay results taken from US20180251431A1 (VERTEX PHARMACEUTICALS INCORPORATED, priority 2016, published 2018).
# What was measured:
# ALD patient fibroblasts = experiment: Reduction in C26:0 LPC in ALD patient fibroblasts in vitro; format: cell-based, human; conditions: Patient Fibroblast (CALD 1), half maximal reduction in C26:0 LPC, each number a separate measurement
# Description: Lysophosphatidylcholine (LPC) VLCFA were generated from straight chain VLCFA (SC-VLCFA) and were used clinically for newborn screening (Vogel et al., Mol. Genet. Metab. (2015) 114(4):599-603). In vitro efficacy studies were performed by measuring LPC VLCFA level (measured as LPC synthesis) in various cell lines, specifically in 1) human HEK cells, 2) patient derived cells, and 3) human microglia, which are disease relevant CNS cells. Compound 87's dose response relationships and IC50 values were measured in HEK cells, primary patient fibroblasts, immortalized patient lymphocytes, and a human microglial cell line. […]
# Primary patient fibroblasts were obtained from Coriell Institute for Medical Research. […] The plate was sealed with a plate tape and put at −80° C. for further VLCFA extraction and VLCFA quantitation on LC-MS, as described below.
# VLCFA Extraction and Quantitation on LCMS:
# Treated cells were transferred to a polypropylene v-bottom plate and then centrifuged at 1690×g for 10 minutes. […] The plates were then sealed with pierceable capmats (Micronic MP53017) and stored at −20° C. until further analyzed using UPHLC/Mass Spectrometry Readout, as described above in example 2.1, which measured the integration of ^13C into lysophosphatidylcholine (LPC) indicated fatty acid elongation. […]
# ABCD1 KO mice = experiment: Reduction of C26:0 LPC, SC-VLCFA and acyl carnitine levels in ABCD1 KO brains; format: in vivo, mouse; conditions: for reduction of brain C26:0 acyl carnitine levels: after 2 months of treatment
# Description: To examine the effect of Compound 87 on VLCFA levels in the CNS, female ABCD1 KO mice were treated with vehicle, 1 or 10 mg/kg PO QD for 2 weeks (14 days; n=5 per group), 1 month (28 days; n=5 per group), 2 months (56 days; n=6 per group), or 3 months (84 days; n=6 per group). The brain samples used in this study were from the same mice used in the long term dosing study in ABCD1 knock-out mice and WT mice (see Example 2.3). Brain tissue samples were collected after 2, 4, 8, or 12 weeks of dosing with vehicle or Compound 87. Brain samples were frozen at −70° C. and were analyzed for VLCFA (LPC, SC-VLCFA, acyl-carnitines) via liquid chromatography-mass spectrometry (LCMS) as described below. The vehicle used was 2% TPGS and Compound 87 doses were prepared in 2% TPGS.
# Levels of VLCFA, including straight chain very long chain fatty acids (SC-VLCFA), acyl carnitines, and lysophosphatidylcholines (LPC), in the brain were examined. SC-VLCFA were expected to be rapidly incorporated into other forms and acyl carnitines were expected to be rapidly degraded, contributing to a short expected half-life for these forms. LPC was expected to integrate into membranes, contributing to a longer expected half-life.
# Brain Sample Preparation:
# (i) 3 volumes of MeOH was add to each sample; (ii) homogenized tissue samples with FastPrep (FP120) at 4.5 intensity for 25 seconds; and (iii) aliquoted tissue lysates.
# LPC and Acylcarnitine Extraction with CHCl3/MeOH Liquid-Liquid Extraction:
# Added 1 mL MeOH, then added 1 mL […] to the brain tissue lysates; incubated 30 minutes at room temperature; added 1 mL CHCl3 and 0.75 mL H2O; incubated 30 minutes; centrifuged max for 10 minutes; transferred lower layer to new vials; organic phase was dried using Turbo-Vac. The resulting residue was re-constituted with MeOH.
# 3-Step Chemical Derivatization of SC-VLCFA Using Dimethylaminoethanol (VLCFA-DMAE):
# (i) added oxalyl chloride (2 mol/l oxalyl chloride in CH2Cl2, 200 ul) to the dried mixture, incubated at 65° C. for 5 minutes; (ii) added 60 uL dimethylaminoethanol, incubated at 25° C. for 5 minutes and dried down; (iii) added 100 uL methyl iodide, incubated briefly and dried down. The resulting residue was re-constituted with ethanol (EtOH).
# LCMSMS Detection of VLCFA (e.g., Spingomyelin (SM) and LPC and Derivatized VLCFA (FA-DMAE)):
# LPC Detection: • Column: Discovery C18, 2.1×20 mm • Phase A: 50% MeOH/5 mM AF; Phase B: 2-propanol • MS: 4000 Qtrap operated in ESI MRM positive mode
# FA-DMAE Detection: • Column: Synergi Polar RP, 2×150 mm • Phase A: H2O/0.1% FA; Phase B: ACN/0.1% FA • MS: 4000 Qtrap operated in ESI MRM positive mode
# [1] = 1 mg/kg or 10 mg/kg PO QD, after 2 weeks of dosing
smiles,measurement,setting,value
"O=C(Nc1ccn(-c2ccnc(F)c2)n1)C1(c2ccccc2F)CC1 [Compound 87, 1-(2-fluorophenyl)-N-[1-(2-fluoro-4-pyridyl)pyrazol-3-yl]cyclopropanecarboxamide]",IC50,"ALD patient fibroblasts; Homo sapiens, Fibroblast",17 nM
same,IC50,ALD patient fibroblasts,23 nM
same,reduction in brain C26:0 LPC,"ABCD1 KO mice; 1 mg/kg PO QD, 2 months",~30%
same,reduction of brain C26:0 SC-VLCFA levels,"ABCD1 KO mice; 1 mg/kg PO QD, 2 months",about 30%
same,reduction in brain C26:0 LPC,"ABCD1 KO mice; 1 mg/kg PO QD, 3 months",~30%
same,reduction of brain C26:0 SC-VLCFA levels,"ABCD1 KO mice; 1 mg/kg PO QD, 3 months",about 50%
same,reduction of brain C26:0 acyl carnitine levels,ABCD1 KO mice; 1 mg/kg PO QD,~50%
same,brain C24:0 LPC levels (normalized by C16:0 LPC levels),"ABCD1 KO mice; 1 mg/kg or 10 mg/kg PO QD, 3 months",significant reduction
same,brain LPC levels,ABCD1 KO mice; [1],no changes
same,brain SC-VLCFA levels,ABCD1 KO mice; [1],no changes
same,reduction in brain C26:0 LPC,"ABCD1 KO mice; 10 mg/kg PO QD, 2 months",~40%
same,reduction of brain C26:0 SC-VLCFA levels,"ABCD1 KO mice; 10 mg/kg PO QD, 2 months",about 55%
same,reduction of brain C26:0 acyl carnitine levels,ABCD1 KO mice; 10 mg/kg PO QD,~70%
same,brain C24:0 SC-VLCFA level,"ABCD1 KO mice; 10 mg/kg PO QD, after 3 months of dosing",significant reduction
